The values below come from ChEMBL document CHEMBL4406923, “New Potent DOT1L Inhibitors for in Vivo Evaluation in Mouse” (ACS Med Chem Lett, 2019).

Molecules are shown by their SMILES. Calls of active or inactive are those of the source. The calls are words filed in the database; no cut-off is given here. Where only a bound is given, the exact number is not on record here.

Data set [1] deals with T1, Histone-arginine methyltransferase CARM1 (Homo sapiens) (UniProt Q86X55).
T1 sequence (whole entry): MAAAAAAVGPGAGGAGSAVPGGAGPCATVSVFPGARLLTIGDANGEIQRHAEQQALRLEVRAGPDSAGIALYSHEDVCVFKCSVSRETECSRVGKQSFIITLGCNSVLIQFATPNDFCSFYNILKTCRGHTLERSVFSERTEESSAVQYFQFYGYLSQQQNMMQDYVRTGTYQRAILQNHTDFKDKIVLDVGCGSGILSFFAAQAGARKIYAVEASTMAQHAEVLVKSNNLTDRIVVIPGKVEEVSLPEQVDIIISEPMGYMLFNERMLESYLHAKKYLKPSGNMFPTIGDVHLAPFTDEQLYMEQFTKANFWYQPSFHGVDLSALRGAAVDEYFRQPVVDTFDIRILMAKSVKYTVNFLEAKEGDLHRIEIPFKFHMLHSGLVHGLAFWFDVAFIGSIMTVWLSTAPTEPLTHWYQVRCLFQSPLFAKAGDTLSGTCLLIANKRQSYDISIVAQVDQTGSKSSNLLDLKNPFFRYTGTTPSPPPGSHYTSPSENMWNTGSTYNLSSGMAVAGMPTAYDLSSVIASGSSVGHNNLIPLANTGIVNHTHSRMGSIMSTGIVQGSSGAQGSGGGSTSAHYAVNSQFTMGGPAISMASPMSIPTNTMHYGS
Description: Inhibition of CARM1 (unknown origin) at <5 uM using histone H3 peptide (1 to 21) as substrate in presence of co-factor SAM by LC-MS analysis.

Data set [2] deals with MLL1/ASH2L/RBBP5/WDR5 complex (Homo sapiens) (UniProt P61964+Q03164+Q9UBL3+Q15291). Description: Inhibition of MLL (MLL/ASH2L/RBBP5/WDR5) (unknown origin) at <5 uM using histone H3 peptide (1 to 21) as substrate in presence of co-factor SAM by LC-MS analysis. In kind it is protein-complex assay.
In data set [3] the target is T2, Histone-lysine N-methyltransferase NSD3 (Homo sapiens) (UniProt Q9BZ95).
T2 sequence (whole entry): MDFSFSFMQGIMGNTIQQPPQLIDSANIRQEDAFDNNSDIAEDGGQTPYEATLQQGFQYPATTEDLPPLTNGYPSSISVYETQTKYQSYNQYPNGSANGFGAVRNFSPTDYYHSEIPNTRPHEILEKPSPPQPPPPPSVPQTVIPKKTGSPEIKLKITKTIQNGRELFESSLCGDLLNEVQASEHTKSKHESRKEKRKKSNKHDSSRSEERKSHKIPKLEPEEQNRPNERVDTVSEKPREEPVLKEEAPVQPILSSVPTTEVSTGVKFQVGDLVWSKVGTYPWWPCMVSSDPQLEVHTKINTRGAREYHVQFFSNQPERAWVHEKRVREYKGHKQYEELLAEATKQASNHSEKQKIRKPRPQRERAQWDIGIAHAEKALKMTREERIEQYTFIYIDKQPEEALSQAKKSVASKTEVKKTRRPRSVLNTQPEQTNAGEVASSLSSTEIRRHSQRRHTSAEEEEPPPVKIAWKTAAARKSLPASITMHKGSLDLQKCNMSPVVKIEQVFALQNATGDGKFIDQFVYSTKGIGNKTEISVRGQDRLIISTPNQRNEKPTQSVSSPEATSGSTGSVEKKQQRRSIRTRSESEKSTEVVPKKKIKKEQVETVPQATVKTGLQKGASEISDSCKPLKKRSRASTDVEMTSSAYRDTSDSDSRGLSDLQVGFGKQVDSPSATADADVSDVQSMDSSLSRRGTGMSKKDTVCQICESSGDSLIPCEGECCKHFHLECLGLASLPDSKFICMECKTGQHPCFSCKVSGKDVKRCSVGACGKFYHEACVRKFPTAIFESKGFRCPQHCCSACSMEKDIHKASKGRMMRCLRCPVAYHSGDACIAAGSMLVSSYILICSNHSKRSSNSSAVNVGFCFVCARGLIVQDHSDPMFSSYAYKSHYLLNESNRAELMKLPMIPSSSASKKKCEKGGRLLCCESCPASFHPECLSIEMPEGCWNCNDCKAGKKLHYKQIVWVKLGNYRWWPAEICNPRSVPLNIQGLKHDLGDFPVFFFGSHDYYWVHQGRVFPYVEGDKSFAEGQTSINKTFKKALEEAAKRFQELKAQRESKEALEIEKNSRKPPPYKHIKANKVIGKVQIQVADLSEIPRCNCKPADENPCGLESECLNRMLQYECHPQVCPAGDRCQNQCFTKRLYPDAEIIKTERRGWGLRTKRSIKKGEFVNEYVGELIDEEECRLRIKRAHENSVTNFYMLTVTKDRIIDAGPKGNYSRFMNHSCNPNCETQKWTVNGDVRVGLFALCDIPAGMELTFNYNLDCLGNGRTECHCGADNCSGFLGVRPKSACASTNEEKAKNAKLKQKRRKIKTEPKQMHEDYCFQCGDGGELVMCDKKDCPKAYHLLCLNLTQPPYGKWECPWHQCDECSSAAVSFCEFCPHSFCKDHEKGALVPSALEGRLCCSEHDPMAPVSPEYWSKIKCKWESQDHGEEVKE
Kind of data set: Inhibition of NSD3 (unknown origin) at <5 uM using histone H3 peptide (1 to 45) as substrate in presence of co-factor SAM by LC-MS analysis.

For data set [4], the target named is T3, N-lysine methyltransferase KMT5A (Homo sapiens) (UniProt Q9NQR1).
T3 sequence (whole entry): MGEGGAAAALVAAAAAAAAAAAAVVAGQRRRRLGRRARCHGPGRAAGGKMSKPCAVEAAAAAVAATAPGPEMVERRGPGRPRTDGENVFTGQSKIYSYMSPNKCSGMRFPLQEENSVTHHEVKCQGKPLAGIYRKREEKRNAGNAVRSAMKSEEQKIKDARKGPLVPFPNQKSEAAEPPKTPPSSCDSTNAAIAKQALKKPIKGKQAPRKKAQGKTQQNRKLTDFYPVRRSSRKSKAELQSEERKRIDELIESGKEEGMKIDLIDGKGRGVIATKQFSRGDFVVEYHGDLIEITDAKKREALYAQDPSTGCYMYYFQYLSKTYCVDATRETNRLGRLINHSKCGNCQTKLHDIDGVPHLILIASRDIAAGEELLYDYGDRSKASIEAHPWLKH
Kind of data set: Inhibition of SETD8 (unknown origin) at <5 uM using H4 (11 to 33 residues) as substrate in presence of co-factor SAM by LC-MS analysis.

For data set [5], the system named is Mus musculus. Kind of data set: In vivo inhibition of DOT1L in C57BL/6 mouse xenografted with human MV4-11 cells assessed as reduction in HOXA9 gene expression at <6 fold 300 mg/kg, po relative to control. In kind it is functional. In general terms: Xenograft models place foreign cells or tissue in a host animal.
A short description of data set [6]: Toxicity in C57BL/6 mouse xenografted with human MV4-11 cells at 300 mg/kg, po. It counts as organism-based. Particulars: in vivo.

For `COc1nc(Nc2cc(S(C)(=O)=O)ccc2N[C@@H](c2cccc3c2OC(F)(F)O3)c2ncccc2Cl)nc(N2CCNCC2)n1`, the inhibition entry in data set [1], in data set [2], in data set [3] and in data set [4] was “inactive” throughout. Moreover, the “fold change (FC)” value in data set [5] is less than 0.5. In addition, the Activity result in data set [6] is given as “Toxic”.
